Results as given in patent publication US20040110771A1, “7-(r)-aminotriazolopyrimidines, the production thereof and use of the same for combatting phytopathogenic fungi” (priority 2000, published 2004).

Legend:
Format in all cases: in vivo
Puccinia recondita = test: Curative activity against brown rust of wheat caused by Puccinia recondita; settings: curative spray 24 h after inoculation, wheat seedlings "Kanzler", 7 days
Outline: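 Wheat seedlings (cv. Kanzler) inoculated with brown rust spores and held 24 h at 90–95% humidity and 20–22°C, then sprayed to runoff with the emulsified compound the next day. Rust development on leaves scored after 7 days in greenhouse at 20–22°C and 65–70% relative humidity.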

Pyrenophora teres = test: Activity against net blotch of barley caused by Pyrenophora teres; settings: barley seedlings "Igri", inoculated 24 h after spraying, 6 days
Outline: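 Disease was read as visually estimated % infection of total leaf area 6 days after inoculation (greenhouse, 20-24° C, 95-100% humidity). Seedlings of cultivar Igri had been sprayed to runoff point with diluted compound emulsion and inoculated with a P. teres spore suspension 24 h later.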

Septoria tritici = test: Protective activity against Septoria foliar blotch disease of wheat caused by Septoria tritici; settings: wheat seedlings "Riband", inoculated 24 h after spraying, 2 weeks
Outline: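 Potted wheat seedlings (cv. Riband) sprayed to runoff with compound emulsion, then inoculated 24 h after drying with Septoria tritici spores at 2.0×10^6 spores/ml. Kept in greenhouse at 18-22° C, humidity near 100%; after 2 weeks, % infected leaf area scored visually.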

[1] = tested on: Blumeria graminis forma specialis tritici; test: Activity against mildew of wheat caused by Blumeria graminis forma specialis tritici; settings: wheat seedlings "Kanzler", dusted with spores 24 h after spraying, 7 days
Outline: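 Protective test: Blumeria graminis f. sp. tritici spores dusted onto cv. Kanzler wheat seedling leaves 24 h after spray deposit of aqueous compound preparation had dried. After 7 days in greenhouse (20-24° C., 60-90% relative humidity), infection estimated by eye as % of total leaf area.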

CC[C@H](C)Nc1c(-c2c(Cl)cccc2Cl)c(Cl)nc2ncnn12 [comparison (S)-amine of I.-7]
% infection of the leaves after application of an aqueous preparation comprising . . . ppm of active compound (Puccinia recondita; 16 ppm): 100% | % infection of the leaves after application of an aqueous preparation comprising . . . ppm of active compound (Pyrenophora teres; 16 ppm): 100% | % infection of the leaves after application of an aqueous preparation comprising . . . ppm of active compound (Pyrenophora teres; 63 ppm): 100% | % infection of the leaves after application of an aqueous preparation comprising . . . ppm of active compound (Pyrenophora teres; 250 ppm): 100% | % infection of the leaves after application of an aqueous preparation comprising . . . ppm of active compound (Septoria tritici; 16 ppm): 90% | % infection of the leaves after application of an aqueous preparation comprising . . . ppm of active compound (Septoria tritici; 63 ppm): 90% | % infection of the leaves after application of an aqueous preparation comprising . . . ppm of active compound (Septoria tritici; 250 ppm): 90% | % infection of the leaves after application of an aqueous preparation comprising . . . ppm of active compound ([1]; 250 ppm): 100%

CC(C)[C@H](C)Nc1c(-c2c(F)cc(F)cc2F)c(Cl)nc2ncnn12 [comparison (S)-amine of I.-14]
% infection of the leaves after application of an aqueous preparation comprising . . . ppm of active compound (Puccinia recondita; 16 ppm): 100% | % infection of the leaves after application of an aqueous preparation comprising . . . ppm of active compound (Puccinia recondita; 63 ppm): 5% | % infection of the leaves after application of an aqueous preparation comprising . . . ppm of active compound (Pyrenophora teres; 16 ppm): 40% | % infection of the leaves after application of an aqueous preparation comprising . . . ppm of active compound (Septoria tritici; 16 ppm): 90% | % infection of the leaves after application of an aqueous preparation comprising . . . ppm of active compound (Septoria tritici; 63 ppm): 70% | % infection of the leaves after application of an aqueous preparation comprising . . . ppm of active compound (Septoria tritici; 250 ppm): 70% | % infection of the leaves after application of an aqueous preparation comprising . . . ppm of active compound ([1]; 16 ppm): 100% | % infection of the leaves after application of an aqueous preparation comprising . . . ppm of active compound ([1]; 63 ppm): 80% | % infection of the leaves after application of an aqueous preparation comprising . . . ppm of active compound ([1]; 250 ppm): 80%

CC(Nc1c(-c2ccccc2Cl)c(Cl)nc2ncnn12)C(C)(C)C [comparison (S)-amine of I.-44a]
% infection of the leaves after application of an aqueous preparation comprising . . . ppm of active compound (Puccinia recondita; 250 ppm): 100% | % infection of the leaves after application of an aqueous preparation comprising . . . ppm of active compound (Pyrenophora teres; 16 ppm): 100% | % infection of the leaves after application of an aqueous preparation comprising . . . ppm of active compound (Pyrenophora teres; 63 ppm): 30% | % infection of the leaves after application of an aqueous preparation comprising . . . ppm of active compound (Septoria tritici; 16 ppm): 100% | % infection of the leaves after application of an aqueous preparation comprising . . . ppm of active compound (Septoria tritici; 63 ppm): 100% | % infection of the leaves after application of an aqueous preparation comprising . . . ppm of active compound (Septoria tritici; 250 ppm): 100% | % infection of the leaves after application of an aqueous preparation comprising . . . ppm of active compound ([1]; 16 ppm): 100% | % infection of the leaves after application of an aqueous preparation comprising . . . ppm of active compound ([1]; 63 ppm): 100% | % infection of the leaves after application of an aqueous preparation comprising . . . ppm of active compound ([1]; 250 ppm): 100%
